Structures can show the parent of a compound that is named as a salt.
Assays:
Test in all cases: fluorescence-based plaque-forming assay, A549 cells
Type in all cases: cell-based, human adenovirus
HAdV-B7 = settings: for TI50 (TC50/IC50): HAdV-B7 in A549, 4 dpi, Hexon
Procedure: (§1) Per 96-well plate, 15,000 A549 cells, 10,000 HeLa cells, 30,000 HBECs, 30,000 HCE cells, or 30,000 CMT-93 cells were seeded in 100 μl of the respective supplemented medium and allowed to settle for 1 h at room temperature (RT) prior to cell culture incubation at 37°C with 5% CO2 and 95% humidity. The following day, the medium was replaced with 50 μl of the respective virus stock dilution giving rise to 5 to 50 plaques per 96-well plate. Fifty microliters of nelfinavir to obtain a 0.1 to 50 μM final concentration or the DMSO solvent control was also added, both in supplemented medium. For each experiment, a noninfected, treated control was performed. For uphill plaque assays, the medium volume was increased to 150 μl with identical virus and drug concentrations. For wash-in/washout experiments, the virus was incubated on cells in supplemented medium for 1 h at 37°C, cells were washed with PBS, and a 100-μl drug dilution in supplemented medium was added. All experiments were performed in four technical replicates or as indicated. Cells were incubated under standard cell culture conditions. At the indicated times postinfection, the cells were fixed, and the nuclei were stained for 1 h at RT by the addition of 33 μl 16% (wt/vol) paraformaldehyde (PFA) and 4 μg/ml Hoechst 33342 (Sigma-Aldrich, St. Louis, MO, USA) in PBS. Cells were washed three times with PBS and stored in PBS supplemented with 0.02% N3 for infections with viruses harboring a GFP transgene. For wild-type (wt) viruses, cells were quenched in PBS supplemented with 50 mM NH4Cl, permeabilized using 0.2% (vol/vol) Triton X-100 in PBS, and blocked with 0.5% (wt/vol) bovine serum albumin (BSA) in PBS. Cells were incubated with 381.7 ng/ml mouse anti-HAdV hexon protein antibody (Mab8052; Sigma-Aldrich, St. Louis, MO, USA) and subsequently stained using 2 μg/ml goat anti-mouse-Alexa Fluor 594 (catalog number A21203 or A32742; Thermo Fisher Scientific, Waltham, MA, USA). Plates were imaged on either an IXM-XL or an IXM-C automated high-throughput fluorescence microscope (Molecular Devices, San Jose, CA, USA) using a 4× objective in wide-field mode. Hoechst staining was recorded in the 4′,6-diamidino-2-phenylindole (DAPI) channel, the fluorescein isothiocyanate (FITC)/GFP channel was acquired for viral GFP, and the tetramethyl rhodamine isothiocyanate (TRITC)/Texas Red channel was acquired for hexon immunofluorescence staining.
(§2) The infection phenotype for each well was quantified using Plaque2.0 ([101]). The number of plaques was determined based on the infection signal (viral GFP or hexon immunofluorescence staining). Nuclei stained with Hoechst were segmented by using CellProfiler ([178]). Infected nuclei were classified based on the median infection signal per nucleus in CellProfiler. Data were plotted, and the EC50 (infected and treated cells), the TC50 (noninfected, treated cells), as well as the corresponding standard errors (SE) were determined using curve fitting in GraphPad (version 8.1.2; GraphPad Software, Inc.) using three-parameter inhibitor concentration-versus-response nonlinear regression. The mean TI50 was calculated as the […] ratio of the means. The TI50 SE was calculated by error propagation.

HAdV-B14a = system: HAdV-B14a
Procedure: as §1, §2

HAdV-B3-pIX-FS2A-GFP = system: HAdV-B3-pIX-FS2A-GFP
Procedure: as §1, §2

HAdV-C5 = system: HAdV-C5
Procedure: as §1, §2

HAdV-B21a = system: HAdV-B21a
Procedure: as §1, §2

HAdV-D30 = system: HAdV-D30
Procedure: as §1, §2

HAdV-C2-dE3B-GFP-dADP = settings: for EC50: Human adenovirus sp., plaque numbers
Procedure: as §1, §2

HAdV-C2 = system: HAdV-C2
Procedure: as §1, §2

rec700 (HAdV-C5/2) = system: rec700 (HAdV-C5/2)
Procedure: as §1, §2

HAdV-B16 = system: HAdV-B16
Procedure: as §1, §2

HAdV-C1 = system: HAdV-C1
Procedure: as §1, §2

HAdV-A31 = system: HAdV-A31
Procedure: as §1, §2

HAdV-B11 = settings: for TI50 (TC50/IC50): HAdV-B11 in A549, 3 dpi, Hexon
Procedure: as §1, §2

HAdV-C6 = system: HAdV-C6
Procedure: as §1, §2

HAdV-D8 = system: HAdV-D8
Procedure: as §1, §2

HAdV-B35-pIX-FS2A-GFP = system: HAdV-B35-pIX-FS2A-GFP
Procedure: as §1, §2

## Cc1c(O)cccc1C(=O)N[C@@H](CSc1ccccc1)[C@H](O)CN1C[C@H]2CCCC[C@H]2C[C@H]1C(=O)NC(C)(C)C [Nelfinavir, Nelfinavir mesylate]
HAdV-B7
  TI50 (TC50/IC50): 0.75
HAdV-B7; listed as nelfinavir
  TI50 (TC50/IC50): < 1
HAdV-B7; Human adenovirus sp., HAdV-B7 in A549, fixation 4 dpi, read-out Hexon, plaque numbers
  EC50: 16.9 µM
HAdV-B14a; HAdV-B14a in A549, 3 dpi, Hexon
  TI50 (TC50/IC50): 38.22
HAdV-B14a; Human adenovirus sp., HAdV-B14a in A549, fixation 3 dpi, read-out Hexon, plaque numbers
  EC50: 0.4 µM
HAdV-B3-pIX-FS2A-GFP; HAdV-B3-pIX-FS2A-GFP in A549, 3 dpi, Hexon
  TI50 (TC50/IC50): 1.50
HAdV-B3-pIX-FS2A-GFP; Human adenovirus sp., A549
  EC50: 10.2 µM
HAdV-C5; HAdV-C5 in A549, 3 dpi, VI
  TI50 (TC50/IC50): 21.01
HAdV-C5; Human adenovirus sp., HAdV-C5 in A549, fixation 3 dpi, read-out VI, plaque numbers
  EC50: 0.57 µM
HAdV-B21a; HAdV-B21a in A549, 4 dpi, Hexon
  TI50 (TC50/IC50): 1.27
HAdV-B21a; Human adenovirus sp., HAdV-B21a in A549, fixation 4 dpi, read-out Hexon, plaque numbers
  EC50: 16 µM
HAdV-D30; HAdV-D30 in A549, 5 dpi, Hexon
  TI50 (TC50/IC50): 3.18
HAdV-D30; Human adenovirus sp., HAdV-D30 in A549, fixation 5 dpi, read-out Hexon, plaque numbers
  EC50: 4.2 µM
HAdV-C2-dE3B-GFP-dADP; HAdV-C2-dE3B-GFP-dADP in A549, 4 dpi, GFP
  TI50 (TC50/IC50): 2.11
HAdV-C2-dE3B-GFP-dADP; HAdV-C2-dE3B-GFP-dADP in A549, 4 dpi, GFP, listed as nelfinavir
  TI50 (TC50/IC50): 2.1
HAdV-C2-dE3B-GFP-dADP; HAdV-C2-dE3B-GFP-dADP in A549, 5 dpi, GFP
  TI50 (TC50/IC50): 6.73
HAdV-C2-dE3B-GFP-dADP; HAdV-C2-dE3B-GFP-dADP in A549, 5 dpi, Hexon
  TI50 (TC50/IC50): 5.20
HAdV-C2-dE3B-GFP-dADP; A549, HAdV-C2-dE3B-GFP-dADP in A549, fixation 4 dpi (96 hpi), read-out GFP
  EC50: 5.82 µM
HAdV-C2-dE3B-GFP-dADP; A549, HAdV-C2-dE3B-GFP-dADP in A549, fixation 5 dpi, read-out GFP
  EC50: 2.23 µM
HAdV-C2-dE3B-GFP-dADP; A549, HAdV-C2-dE3B-GFP-dADP in A549, fixation 5 dpi, read-out Hexon
  EC50: 2.88 µM
HAdV-C2; HAdV-C2 in A549, 4 dpi, Hexon
  TI50 (TC50/IC50): 71.09
HAdV-C2; Human adenovirus sp., HAdV-C2 in A549, fixation 4 dpi, read-out Hexon, plaque numbers
  EC50: 0.24 µM
rec700 (HAdV-C5/2); Human adenovirus sp., A549
  EC50: 0.07 µM
rec700 (HAdV-C5/2); rec700 (HAdV-C5/2) in A549, 4 dpi, Hexon
  TI50 (TC50/IC50): 177.41
HAdV-B16; HAdV-B16 in A549, 4 dpi, Hexon
  TI50 (TC50/IC50): 1.66
HAdV-B16; Human adenovirus sp., HAdV-B16 in A549, fixation 4 dpi, read-out Hexon, plaque numbers
  EC50: 12.3 µM
HAdV-C1; HAdV-C1 in A549, 4 dpi, Hexon
  TI50 (TC50/IC50): 12.22
HAdV-C1; Human adenovirus sp., HAdV-C1 in A549, fixation 4 dpi, read-out Hexon, plaque numbers
  EC50: 1.94 µM
HAdV-A31; HAdV-A31 in A549, 6 dpi, Hexon
  TI50 (TC50/IC50): 1.35
HAdV-A31; Human adenovirus sp., HAdV-A31 in A549, fixation 6 dpi, read-out Hexon, plaque numbers
  EC50: 14.1 µM
HAdV-B11
  TI50 (TC50/IC50): 0.53
HAdV-B11; listed as nelfinavir
  TI50 (TC50/IC50): < 1
HAdV-B11; Human adenovirus sp., HAdV-B11 in A549, fixation 3 dpi, read-out Hexon, plaque numbers
  EC50: 28.9 µM
HAdV-C6; HAdV-C6 in A549, 3 dpi, Hexon
  TI50 (TC50/IC50): 35.14
HAdV-C6; Human adenovirus sp., HAdV-C6 in A549, fixation 3 dpi, read-out Hexon, plaque numbers
  EC50: 0.6 µM
HAdV-D8; HAdV-D8 in A549, 5 dpi, Hexon
  TI50 (TC50/IC50): 2.36
HAdV-D8; Human adenovirus sp., HAdV-D8 in A549, fixation 5 dpi, read-out Hexon, plaque numbers
  EC50: 9.09 µM
HAdV-B35-pIX-FS2A-GFP; HAdV-B35-pIX-FS2A-GFP in A549, 4 dpi, Hexon
  TI50 (TC50/IC50): 6.13
HAdV-B35-pIX-FS2A-GFP; Human adenovirus sp., A549
  EC50: 2.49 µM

Source: publication PMC7449217, “The FDA-Approved Drug Nelfinavir Inhibits Lytic Cell-Free but Not Cell-Associated Nonlytic Transmission of Human Adenovirus” (Antimicrobial Agents and Chemotherapy, 2020)
